The source of these data is publication PMC8209036, “Structural basis for late maturation steps of the human mitoribosomal large subunit” (Nature Communications, 2021).

Assay [1] addresses T1, NSUN4 (MTERF4-NSUN4 complex) (Homo sapiens, UniProt Q96CB9).
T1 construct: with Transcription termination factor 4, mitochondrial
As to the kind of experiment: cryo-EM structure. In kind it is binding. Conditions: no RNA substrate in active site; co-purified, not added; complex bound to mt-LSU assembly intermediates.

Assay [2] addresses T2, GTPBP5 (GTPBP5::FLAG; GTPBP5^IP) (Homo sapiens, UniProt Q9H4K7).
T2 construct: gene MTG2; Obg-domain and G-domain
T2 sequence (Q9H4K7 1-406): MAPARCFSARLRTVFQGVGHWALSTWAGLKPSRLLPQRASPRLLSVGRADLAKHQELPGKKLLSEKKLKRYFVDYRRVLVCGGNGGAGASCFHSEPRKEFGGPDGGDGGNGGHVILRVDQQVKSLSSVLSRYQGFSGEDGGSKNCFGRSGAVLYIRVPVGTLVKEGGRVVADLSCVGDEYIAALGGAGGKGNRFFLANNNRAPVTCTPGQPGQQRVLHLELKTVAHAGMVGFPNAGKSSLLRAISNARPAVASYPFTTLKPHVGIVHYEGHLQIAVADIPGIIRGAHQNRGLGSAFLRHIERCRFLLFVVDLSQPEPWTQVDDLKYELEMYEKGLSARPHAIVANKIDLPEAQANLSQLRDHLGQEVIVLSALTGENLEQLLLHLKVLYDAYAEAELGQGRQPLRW
Briefly: cryo-EM structure. The assay is classed as binding. Conditions: co-purified, not added; G-domain active site; switch I in state 2, bound to mt-LSU assembly intermediate.

T1 sequence (Q96CB9 26-384): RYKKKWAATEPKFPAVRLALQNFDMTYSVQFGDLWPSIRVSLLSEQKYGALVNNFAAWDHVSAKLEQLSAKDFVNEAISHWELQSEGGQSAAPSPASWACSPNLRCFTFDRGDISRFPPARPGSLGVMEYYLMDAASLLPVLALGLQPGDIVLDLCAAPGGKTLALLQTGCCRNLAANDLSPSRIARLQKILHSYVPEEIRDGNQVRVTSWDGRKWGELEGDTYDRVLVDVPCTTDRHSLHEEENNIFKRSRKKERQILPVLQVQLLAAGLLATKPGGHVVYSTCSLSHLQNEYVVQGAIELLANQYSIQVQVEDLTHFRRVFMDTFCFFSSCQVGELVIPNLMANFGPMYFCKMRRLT
T1 sequence (Q7Z6M4 43-381 partner): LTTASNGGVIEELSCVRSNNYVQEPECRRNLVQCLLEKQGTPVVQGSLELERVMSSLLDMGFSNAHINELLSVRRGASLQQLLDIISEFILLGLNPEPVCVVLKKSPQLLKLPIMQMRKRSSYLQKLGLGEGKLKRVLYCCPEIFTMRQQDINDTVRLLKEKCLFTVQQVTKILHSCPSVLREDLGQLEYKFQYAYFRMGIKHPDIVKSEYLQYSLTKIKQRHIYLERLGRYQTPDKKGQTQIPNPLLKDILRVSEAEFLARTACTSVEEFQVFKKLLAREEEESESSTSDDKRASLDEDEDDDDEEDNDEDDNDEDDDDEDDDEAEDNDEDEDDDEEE

`C[S+](CC[C@H](N)C(=O)O)C[C@H]1O[C@@H](n2cnc3c(N)ncnc32)[C@H](O)[C@@H]1O` (some centres unmarked) [S-adenosyl-methionine]: the cryo-EM structure entry in assay [1] was “the methyl-donor S-adenosyl-methionine (SAM) is observed in the NSUN4 active site”.

For the compound `Nc1nc2c(ncn2[C@@H]2O[C@H](COP(=O)(O)OP(=O)(O)OP(=O)(O)O)[C@@H](O)[C@H]2O)c(=O)[nH]1` [GTP], in assay [2], the cryo-EM structure entry is “In our GTPBP5^IP structure, the G-domain has GTP in its active site”.
